Assay results from patent US10894777B2, “TG2 inhibitor piperazine compounds and uses thereof” (UNIVERSITY OF OTTAWA, priority 2016, dated 2021).

Experiments:
[1] = system: rat primary cortical neurons; experiment: Neuronal viability by resazurin assay; format: cell-based; conditions: 24 h
Protocol: DMSO was used as a control. At the end of the treatment, neuronal viability was measured by resazurin assay. Results are shown as a percent of DMSO control (±SEM) (N=3).

[2] = system: TG2 fusion protein mCer-TG2-YFP; experiment: Fluorescence lifetime imaging (FLIM) of TG2 conformation, HaCaT cells; format: cell-based, human; conditions: 5 μM
Protocol: HaCaT cells were electroporated with mCer-TG2 or […] and then treated with 0 or 5 μM of the indicated inhibitor and fluorescent lifetime was monitored. […] HaCaT cells were preloaded with fluorescein cadaverine, treated with the indicated inhibitor and then challenged with calcium ionophore, washed and assayed for FC incorporation. […] The beads were then washed, boiled in Laemmli buffer and electrophoresed for immunoblot detection of TG2. Cell equivalent quantities of total and bound samples were electrophoresed to facilitate comparison of GTP bound versus total. […] Experiments were performed as described in FIGS. 31 (F) and (G).
Fluorescence lifetime imaging. Fluorescence lifetime images were acquired using FLIM system (Alba 5 from ISS). […] Emission was observed through bandpass filter 480/35 nm (Chroma Technology) and detected by a photomultiplier H7422-40 (Hamamatsu). FLIM data were acquired using time-domain modality (SPC-830 TCSPC module from Becker and Hickl GmbH). […] To account for intensity heterogeneity within single intensity images, two to five consecutive scans were acquired and summed to build FLIM intensity image for lifetime analysis. […] FLIM data were analyzed using VistaVision Suite software (Vista v.213 from ISS). Lifetime images were generated by fitting data using single exponential intensity decay model. Intensity threshold for lifetime analysis was set of at least 3-fold above the intensity of dim cells and fitting procedure was performed for binned pixels at level of 3 (7×7 pixels). Lifetime distribution within image is represented with histogram showing pixel frequency of specific lifetime. The average lifetime values with standard deviations were calculated based on all processed pixels in lifetime image. FRET values were calculated according to the formula ET=1−(τDA/τD), where τD is the lifetime of donor (mCer-TG2) and τDA is the lifetime of donor-acceptor pair (mCer-TG2—YFP).

TG2 [3] = molecular target: T1, TG2 (Homo sapiens, UniProt P21980); experiment: In situ transglutaminase assay, ionomycin-activated, GBM cell lines; format: cell-based; parameters: endogenous in cells; conditions: 10 μM; for ionomycin-activated in situ transamidating activity of TG2: U87 cells, 1 h pretreatment, 1 μM ionomycin 3 h
T1 sequence (P21980 1-687): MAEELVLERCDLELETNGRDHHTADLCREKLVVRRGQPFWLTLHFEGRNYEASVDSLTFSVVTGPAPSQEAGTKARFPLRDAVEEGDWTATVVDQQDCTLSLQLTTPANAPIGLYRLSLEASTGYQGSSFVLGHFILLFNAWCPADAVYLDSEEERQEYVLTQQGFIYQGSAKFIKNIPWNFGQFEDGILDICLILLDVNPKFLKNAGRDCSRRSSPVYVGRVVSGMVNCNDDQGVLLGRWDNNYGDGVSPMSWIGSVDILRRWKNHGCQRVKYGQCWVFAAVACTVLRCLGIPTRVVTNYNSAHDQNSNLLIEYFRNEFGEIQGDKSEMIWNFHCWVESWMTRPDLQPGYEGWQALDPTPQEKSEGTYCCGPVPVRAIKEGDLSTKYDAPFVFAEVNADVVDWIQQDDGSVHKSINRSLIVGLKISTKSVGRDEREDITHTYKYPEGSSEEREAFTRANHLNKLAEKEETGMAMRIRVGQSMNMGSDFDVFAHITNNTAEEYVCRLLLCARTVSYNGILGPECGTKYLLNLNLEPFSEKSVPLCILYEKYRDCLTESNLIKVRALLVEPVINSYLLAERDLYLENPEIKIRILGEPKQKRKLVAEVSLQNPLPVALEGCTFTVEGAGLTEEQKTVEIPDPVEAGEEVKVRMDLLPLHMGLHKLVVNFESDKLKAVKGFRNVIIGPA
Protocol: In situ transglutaminase assay. In situ transamidating activity measurement was conducted as described previously (Gundemir, S. and Johnson, G. V., PLoS ONE 4(7):e6123, 2009) with slight modifications. […] In a high protein binding 96-well plate (Falcon), 10 μg of protein was loaded in a total of 50 μL homogenization buffer and the plate was incubated at 4° C. overnight. The next day, 200 μL of blocking buffer (5% BSA, 0.01% Tween 20 in borate saline [100 mM boric acid, 20 mM Na-borate and 0.76 mM NaCl]) was added to each sample and the plate was incubated at 37° C. for 1 h. Each well was then rinsed 3 times with rinsing buffer (1% BSA, 0.01% Tween 20 in borate saline) and incubated with 1 μg/μL Horseradish peroxidase conjugated neutravidin (Pierce) in a total of 100 μL rinsing buffer at room temperature for 1 h. […] After 20 minutes, the reaction was stopped by addition of 50 μL of 1 M sulfuric acid and read at 493 nm wavelength.

TG2 [4] = molecular target: T1, TG2; experiment: In situ TG2 transamidase activity assay (fluorescein cadaverine incorporation), SCC-13 cells; format: cell-based; parameters: endogenous in cells; host or cells: SCC-13; conditions: for FC incorporation (TG2 transamidase activity): 20 μM 30 min, then A23187 90 min
Protocol: Insitu TG2 activity assay. Cells (40,000) were plated in 24-well attachment dishes in spheroid media and grown until 50% confluent. Fluorescein cadaverine (FC) was added in 2 mL of serum-free medium at a final concentration of 20 μM and incubated for 4 hours. The wells were washed twice with serum-free spheroid medium, and then 2 mL of fresh serum-free medium was added containing 0-20 μM NC9. After 30 min, the wells were supplemented with 10 μM A23187. Cells were incubated for an additional 90 min and then washed three times with Ca^++/Mg^++-free HBSS, fixed with formalin, and washed with phosphate-buffered saline and imaged to detect fluorescein.
In situ TG2 transamidase activity assay. Cells (40,000) were plated in 24-well attachment dishes in spheroid media and grown until 50% confluent. FC was added in 2 ml of serum-free medium at a final concentration of 20 μM and incubated for 4 h. […] After 30 min, the wells were supplemented with 10 NM A23187, a calcium ionophore.

SMILES	neuronal viability / tolerability [1]	fluorescence lifetime / TG2 structure [2]	ionomycin-activated in situ transamidating activity of TG2 (TG2 [3])	FC incorporation (TG2 transamidase activity) (TG2 [4])	in situ transamidation activity of TG2 induced by ionomycin (TG2 [3]; U87, 1321N, U251, T98G cell lines)	TG2 transamidase activity (FC incorporation) (TG2 [4]; 20 μM NC9, calcium ionophore)
C=CC(=O)NCCCC[C@H](NC(=O)OCc1ccccc1)C(=O)N1CCN(C(=O)c2cc3ccc(O)cc3oc2=O)CC1 [VA5, (S)-Benzyl(6-acrylamido-1-(4-(7-hydroxy-2-oxo-2H-chromene-3-carbonyl)piperazin-1-yl)-1-oxohexan-2-yl)carbamate]	well tolerated up to 10 μM concentration	increased fluorescence lifetime	inhibit ionomycin-activated transamidating activity of TG2	drastically reduced		
C=CC(=O)NCCCC[C@H](NC(=O)OCc1ccccc1)C(=O)NCCOCCOCCNS(=O)(=O)c1cccc2c(N(C)C)cccc12 [NC9]	well tolerated up to 10 μM concentration	increased fluorescence lifetime	inhibit ionomycin-activated transamidating activity of TG2	drastically reduced	completely inhibited	reduced
C=CC(=O)NCCCC[C@H](NC(=O)OCc1ccccc1)C(=O)N1CCN(S(=O)(=O)c2cccc3c(N(C)C)cccc23)CC1 [VA4, (S)-benzyl(6-acrylamido-1-(4-((5-(dimethylamino)naphthalen-1-yl)sulfonyl)piperazin-1-yl)-1-oxohexan-2-yl)carbamate]	well tolerated up to 10 μM concentration	increased fluorescence lifetime	inhibit ionomycin-activated transamidating activity of TG2	drastically reduced		
